We go through twelve molecules from US11952365B2, “Anti-viral compounds” (Aligos Therapeutics, Inc., priority 2020, dated 2024).

pEC50, pIC50: −log10 of the molar value. Like-named read-outs stand apart in the source and are kept apart here. Some results are limits rather than exact numbers.

Data set [1] relates to SARS-CoV-2-GHB-03021/2020. Nature of the data set: microbe, parasite or virus in culture. The data set is classed as cell-based. Conditions: Severe acute respiratory syndrome coronavirus 2, Vero C1008, 96 h; read-out: VeroE6 + CP (EC50).
A short description of data set [2]: in vitro. Conditions: human.
Data set [3] deals with SARS-CoV-2-GHB-03021/2020. Nature of the data set: SARS-CoV-2 Infection Model in Huh7 Cells. Conditions: Severe acute respiratory syndrome coronavirus 2, Huh-7, 96 h, SARS-CoV-2, day 4 p.i., MTS. The data set is classed as cell-based.
Data set [4] can be described thus: Cytotoxicity plates without OC43 virus (cell-titer-glo). The data set is classed as cell-based, human. Conditions: human; HeLa cells without OC43 virus, class symbols. In short, it runs like this:
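HeLa cells seeded overnight, then treated with serially diluted compounds in 2% FBS EMEM, uninfected, in parallel with the OC43 antiviral plates. Incubated 6 days at 33 °C; viability read by CellTiter-Glo luminescence.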

The nature of data set [5]: in vitro. Conditions: African green monkey, VeroE6 + CP (CC50), Vero E6-eGFP cells with CP-100356, absence of virus, MTS; numeric bounds.
The next data set has as its target T1, human cathepsin L (Homo sapiens, UniProt P07711).
T1 construct: purchased R&D Systems
Description: cathepsin L assay. Format: biochemical. Conditions: 10 pM human cathepsin L, Z-FR-AMC 2 μM. In short, it runs like this: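 Human cathepsin L at 10 pM was preincubated 30 min with compound, then reaction started with Z-FR-AMC (2 μM final). Fluorescence (355/460 nm) read every 2 min for 30 min; IC50 from four-parameter curve fit.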

The subject of data set [6] is human beta-coronavirus OC43. Description: microbe, parasite or virus in culture. Format: cell-based. Conditions: Betacoronavirus 1, OC43, HeLa, 144 h.
In another data set the target is 3CLpro (Severe acute respiratory syndrome coronavirus 2, UniProt P0DTD1). Description: SARS-CoV-2 3CLpro protease assay (duplex, SAMDI-MS). The data set is classed as biochemical. On the set-up: For the duplex assay, 3CLpro and HRV3C was added. Conditions: 3CLpro, 30 mins preincubation, class symbols; read-out: SARS-Cov-2 IC50.
In a further data set the target is HRV3C (Human rhinovirus 14, UniProt P03303). Nature of the data set: HRV3C protease assay (duplex, SAMDI-MS). The data set is classed as biochemical, HRV. Conditions: 30 mins preincubation. In short, it runs like this: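 Duplex format with 3CLpro; 30 min enzyme–compound preincubation, 30 min reaction with two peptide substrates, ambient temp. Stop: 0.5% formic acid, neutralized with 1% NaHCO3 (finals). Readout SAMDI-MS, product AUC over internal standard AUC; four-parameter IC50.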

[7] abbreviates: OC43 in HeLa cells, 6 days at 33° C., class symbols, read-out: EC50.
Where [8] appears, read: HRV3C, class symbols, read-out: HRV IC50.
The mark [9] stands for this setting: HRV3C, bound, read-out: HRV IC50.

As to `O=C(NC1CC1)C(=O)[C@H](C[C@@H]1CCNC1=O)NC(=O)[C@@H]1CC2(CCN1C(=O)c1cc3ccccc3[nH]1)CC2` [Compound 140, (S)—N—((S)-4-(cyclopropylamino)-3,4-dioxo-1-((S)-2-oxopyrrolidin-3-yl)butan-2-yl)-6-(1H-indole-2-carbonyl)-6-azaspiro[2.5] octane-5-carboxamide], the figures for the pEC50 in data set [1], in data set [3] (class symbols) and in data set [6] were 5.00 to 6.00, 5.00 to 6.00 and 6.00 to 7.00, respectively. The values for the CC50 in “in vitro [2]” and in “in vitro [5]” were above 10 µM and above 50 µM, respectively. The molecule further had a CC50 at 6 days in data set [4] above 10 µM. Moreover, the pIC50 against human cathepsin L (class symbols) was at most 5.00; on 3CLpro it was 6.70 to 7.70; against HRV3C (HRV IC50, HRV3C, class symbols), 4.70 to 5.70.
`O=C1NCC[C@H]1C[C@H](NC(=O)[C@@H]1[C@H]2CCC[C@H]2CN1C(=O)c1cc(-c2ccccc2)c[nH]1)C(=O)CO` [Compound 79, (1S,3aR,6aS)—N—((S)-4-hydroxy-3-oxo-1-((S)-2-oxopyrrolidin-3-yl)butan-2-yl)-2-(4-phenyl-1H-pyrrole-2-carbonyl)octahydrocyclopenta[c]pyrrole-1-carboxamide]: the figures for the negative logarithm of the EC50 (pEC50) in data set [1], in [3] (class symbols) and in data set [6] were 5.00 to 6.00, 5.00 to 6.00 and 6.00 to 7.00, respectively. Also, the CC50 in “in vitro [2]” and in the data set “in vitro [5]” was above 50 µM throughout. Further, the CC50 at 6 days in [4] was above 10 µM. The pIC50 at human cathepsin L (class symbols) is at most 5.00; on 3CLpro, 6.70 to 7.70; against HRV3C (HRV IC50, HRV3C, class symbols), 4.70 to 5.70.
For `O=C(NC1CC1)C(=O)[C@H](C[C@@H]1CCNC1=O)NC(=O)[C@@H]1CC2(CCN1C(=O)c1cc3c(F)cccc3[nH]1)CC2` [Compound 164], the pEC50 in data set [1] is 4.00 to 5.00; in data set [3] (numeric bounds), below 5.00; in data set [6] (setting [7]) it was 5.00 to 6.00. The CC50 was 1 to 10 µM in the data set “in vitro [2]” and above 50 µM in the data set “in vitro [5]”. For the same molecule, the CC50 at 6 days in data set [4] was above 10 µM. For the same molecule, the values for the pIC50 against human cathepsin L (class symbols), on 3CLpro and at HRV3C (setting [8]) were 5.00 to 6.00, above 7.70 and 5.70 to 6.70, respectively.
Take `COc1cccc2[nH]c(C(=O)N3C[C@H]4[C@@H]([C@H]3C(=O)N[C@@H](C[C@@H]3CCCNC3=O)C(=O)CO)C4(C)C)cc12` [Compound 49, (1R,2S,5S)—N-[(2S)-4-hydroxy-3-oxo-1-[(3S)-2-oxopiperidin-3-yl]butan-2-yl]-3-(4-methoxy-1H-indole-2-carbonyl)-6,6-dimethyl-3-azabicyclo[3.1.0]hexane-2-carboxamide]: the figures for the pEC50 in [1], in data set [3] (class symbols) and in data set [6] (setting [7]) were 5.00 to 6.00, 5.00 to 6.00 and 6.00 to 7.00, respectively. Moreover, the CC50 in the data set “in vitro [2]” and in the data set “in vitro [5]” was above 100 µM throughout. In [4], this molecule displayed a CC50 at 6 days above 10 µM. For the same molecule, the pIC50 at human cathepsin L (bound) was below 5.48; at 3CLpro, above 7.70; at HRV3C (setting [9]), below 5.00.
Take `COc1cccc2[nH]c(C(=O)N3C[C@@H]4CCC[C@@H]4[C@H]3C(=O)N[C@@H](C[C@@H]3CCNC3=O)C(=O)CO)cc12` [Compound 27, (1S,3aR,6aS)—N-[(2S)-4-hydroxy-3-oxo-1-[(3S)-2-oxopyrrolidin-3-yl]butan-2-yl]-2-(4-methoxy-1H-indole-2-carbonyl)-hexahydro-1H-cyclopenta[c]pyrrole-1-carboxamide]: the pEC50 in data set [1] was 5.00 to 6.00; in data set [3] (class symbols), 5.00 to 6.00; in [6] (setting [7]), 6.00 to 7.00. Besides, the CC50 in “in vitro [2]” and in the data set “in vitro [5]” was above 100 µM throughout. Further, in data set [4], the CC50 at 6 days was above 10 µM. Besides, the pIC50 is at most 5.00 against human cathepsin L (class symbols), above 7.70 on 3CLpro and 4.70 to 5.70 on HRV3C (setting [8]).
Consider `COc1cccc2[nH]c(C(=O)N3C[C@@H]4CCC[C@@H]4[C@H]3C(=O)N[C@@H](CC3CC(C)(C)NC3=O)C(=O)C(=O)NC3CC3)cc12` (single isomer, unassigned) [Compound 95, (3S)-3-{[(1S,3aR,6aS)-2-(4-methoxy-1H-indole-2-carbonyl)-hexahydro-1H-cyclopenta[c]pyrrol-1-yl]formamido}-N-cyclopropyl-4-[(3R*)-5,5-dimethyl-2-oxopyrrolidin-3-yl]-2-oxobutanamide], for which the values for the pEC50 in data set [1], in data set [3] (class symbols) and in data set [6] (setting [7]) were 5.00 to 6.00, 5.00 to 6.00 and 6.00 to 7.00, respectively. The CC50 in the data set “in vitro [2]” and in “in vitro [5]” was above 50 µM each time. For the same molecule, the CC50 at 6 days in [4] was above 10 µM. Moreover, the pIC50 is at most 5.00 on human cathepsin L (class symbols); 6.70 to 7.70 on 3CLpro; 5.70 to 6.70 against HRV3C (HRV IC50, HRV3C, class symbols).
For `COc1cccc2[nH]c(C(=O)N3C[C@H]4[C@@H]([C@H]3C(=O)N[C@@H](C[C@@H]3CCNC3=O)C(=O)CO)C4(C)C)cc12` [Compound 43], the pEC50 in [1] is 5.00 to 6.00; in data set [3] (class symbols), 5.00 to 6.00; in data set [6] (setting [7]) it was 6.00 to 7.00. The CC50 in the data set “in vitro [2]” and in “in vitro [5]” was above 100 µM throughout. Also, the CC50 at 6 days in data set [4] was above 10 µM. Further, the pIC50 is at most 5.00 against human cathepsin L (class symbols); 6.70 to 7.70 on 3CLpro; below 5.00 against HRV3C (HRV IC50, HRV3C, bound).
Take `COc1cccc2[nH]c(C(=O)N3C[C@]4(C[C@H]3C(=O)NC(C[C@@H]3CCCNC3=O)C(=O)C(N)=O)CC4(F)F)cc12` (stereo partly drawn) [Compound 46, (3S,6S)—N-(4-amino-3,4-dioxo-1-((S)-2-oxopiperidin-3-yl)butan-2-yl)-1,1-difluoro-5-(4-methoxy-1H-indole-2-carbonyl)-5-azaspiro[2.4]heptane-6-carboxamide]: the pEC50 in data set [1], in data set [3] (class symbols) and in data set [6] (setting [7]) was 4.00 to 5.00 each time. The CC50 in “in vitro [2]” was above 10 µM; in “in vitro [5]” it was above 100 µM. For the same molecule, the CC50 at 6 days in data set [4] is above 10 µM. Further, the pIC50 on human cathepsin L (class symbols) is 5.00 to 6.00; on 3CLpro it was 6.70 to 7.70; on HRV3C (setting [8]) it was 5.70 to 6.70.
Consider `O=C1NCC[C@H]1C[C@H](NC(=O)[C@@H]1[C@H]2CCC[C@H]2CN1C(=O)c1cc2c(Cl)ccc(-c3ccccc3)c2[nH]1)C(=O)CO` [Compound 168, (1S,3aR,6aS)-2-(4-chloro-7-phenyl-1H-indole-2-carbonyl)-N-[(2S)-4-hydroxy-3-oxo-1-[(3S)-2-oxopyrrolidin-3-yl]butan-2-yl]-hexahydro-1H-cyclopenta[c]pyrrole-1-carboxamide], for which the pEC50 in [1], in data set [3] (class symbols) and in data set [6] (setting [7]) was 5.00 to 6.00 throughout. Moreover, the CC50 in the data set “in vitro [2]” was above 10 µM; in “in vitro [5]”, above 50 µM. This molecule returned a CC50 at 6 days in data set [4] above 10 µM. Further, the pIC50 against human cathepsin L (class symbols) was at most 5.00; on 3CLpro it was 5.70 to 6.70; on HRV3C (setting [9]), below 5.00.
As to `O=C(NCc1ccccc1)C(=O)[C@H](C[C@@H]1CCNC1=O)NC(=O)[C@@H]1C[C@@]2(CN1C(=O)c1cc3ccccc3[nH]1)CC2(F)F` [Compound 23], the pEC50 in data set [1] is 5.00 to 6.00; in data set [3] (class symbols), 5.00 to 6.00; in data set [6] (setting [7]) it was 6.00 to 7.00. For the same molecule, the CC50 in the data set “in vitro [2]” and in the data set “in vitro [5]” was above 100 µM each time. Moreover, the CC50 at 6 days in data set [4] is above 10 µM. Moreover, the results for the pIC50 at human cathepsin L (class symbols), on 3CLpro and on HRV3C (setting [8]) were 6.00 to 7.00, 6.70 to 7.70 and 4.70 to 5.70, respectively.
On to `O=C1NCC[C@H]1C[C@H](NC(=O)[C@@H]1[C@H]2CCC[C@H]2CN1C(=O)c1cc2c(Cl)ccc(Cl)c2[nH]1)C(=O)CO` [Compound 156, (1S,3aR,6aS)-2-(4,7-dichloro-1H-indole-2-carbonyl)-N-[(2S)-4-hydroxy-3-oxo-1-[(3S)-2-oxopyrrolidin-3-yl]butan-2-yl]-hexahydro-1H-cyclopenta[c]pyrrole-1-carboxamide], for which the values for the pEC50 in [1], in data set [3] (class symbols) and in [6] (setting [7]) were above 6.00, above 6.00 and 6.00 to 7.00, respectively. Further, the CC50 in “in vitro [2]” and in “in vitro [5]” was above 50 µM each time. In [4], this molecule registered a CC50 at 6 days above 10 µM. Moreover, the pIC50 is at most 5.00 at human cathepsin L (class symbols), above 7.70 on 3CLpro and below 5.00 at HRV3C (setting [9]).
With `CC(C)[C@@H]1C[C@@H](C(=O)NC(C[C@@H]2CCNC2=O)C(=O)C(=O)NCc2ccccc2)N(C(=O)c2cc3ccccc3[nH]2)C1` (stereo partly drawn) [Compound 48, N-benzyl-3-{[(2S,4S)-1-(1H-indole-2-carbonyl)-4-isopropylpyrrolidin-2-yl]formamido}-2-oxo-4-[(3S)-2-oxopyrrolidin-3-yl]butanamide], the pEC50 in data set [1] was 5.00 to 6.00; in data set [3] (class symbols) it was 5.00 to 6.00; in data set [6] (setting [7]), 6.00 to 7.00. For the same molecule, the results for the CC50 in “in vitro [2]” and in “in vitro [5]” were above 10 µM and above 100 µM, respectively. Moreover, the CC50 at 6 days in data set [4] is above 10 µM. Moreover, the figures for the pIC50 at human cathepsin L (class symbols), on 3CLpro and on HRV3C (setting [8]) were 6.00 to 7.00, 5.70 to 6.70 and 4.70 to 5.70, respectively.

As a reminder, the pEC50 is the negative decadic logarithm of the EC50, by convention in mol/L. By pIC50 is commonly meant the negative decadic logarithm of the IC50, by convention in mol/L.
